Test results from patent US9834526B2 (MERCK SHARP & DOHME CORP., priority 2013, dated 2017).

Target: T1, wildtype HIV-1 protease (Human immunodeficiency virus type 1 group M subtype B, UniProt P04585)
T1 construct: preincubated with the HIV-1 protease (wild type) enzyme in assay buffer; made in house; host or cells: Escherichia coli
Test: Inhibition of microbial expressed HIV protease (Pepcleav)
Type: biochemical
Settings: wild type HIV-1 protease expressed in E. coli, 20 pM enzyme, 400 micromolar peptide substrate, pH 5.5, LC-MS readout; mean of at least two independent experiments
How it was run: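 E. coli-expressed wild-type enzyme, 20 pM final, preincubated with inhibitor for 30 min at room temperature in 50 mM sodium acetate pH 5.5, 100 mM NaCl, 0.1% BSA. Reaction ran 1 h at 30 °C with 400 μM Val-Ser-Gln-Asn-(β-naphthyl)Ala-Pro-Ile-Val, then was quenched with formic acid. Cleavage product quantified by LC-MS/MS peak area, with indinavir as internal standard.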

C[C@@H]1O[C@H](CCc2c(F)cncc2NC(=O)[C@@H](N)C(c2ccc(F)cc2)c2ccc(F)cc2)CN[C@@H]1COC(=O)NCC(F)(F)F [Example 54, 4-fluoro-N-(5-fluoro-4-{2-[(2R,5R,6S)-6-methyl-5-({[(2,2,2-trifluoroethyl)carbamoyl]oxy}methyl)morpholin-2-yl]ethyl}pyridin-3-yl)-β-(4-fluorophenyl)-L-phenylalaninamide]
IC50: 30 nM

COC(=O)N[C@H](C(=O)Nc1ccccc1CC[C@@H]1CN[C@H](C)[C@@H](CSc2nc(C)c(C)o2)O1)C(c1ccccc1)c1ccccc1 [Example 16, methyl N-[(1S)-1-benzhydryl-2-[[2-[2-[(2R,5R,6S)-6-[(4,5-dimethyloxazol-2-yl)sulfanylmethyl]-5-methyl-morpholin-2-yl]ethyl]phenyl]amino]-2-oxo-ethyl]carbamate]
IC50: 21.5 nM

COC(=O)N[C@H](C(=O)Nc1ccccc1CC[C@@H]1CN[C@H](C)[C@@H](CSc2ncnc3[nH]ncc23)O1)C(c1ccccc1)c1ccccc1 [Example 10, methyl N-[(1S)-1-benzhydryl-2-[[2-[2-[(2R,5R,6S)-5-methyl-6-(1H-pyrazolo[3,4-d]pyrimidin-4-ylsulfanylmethyl)morpholin-2-yl]ethyl]phenyl]amino]-2-oxo-ethyl]carbamate]
IC50: 9.43 nM

C[C@@H]1O[C@H](CCc2c(F)cccc2NC(=O)[C@@H](N)C(c2ccc(F)cc2)c2ccc(F)cc2)CN[C@@H]1COC(N)=O [Example 36, N-[2-(2-{(2R,5R,6S)-5-[(carbamoyloxy)methyl]-6-methylmorpholin-2-yl}ethyl)-3-fluorophenyl]-4-fluoro-β-(4-fluorophenyl)-L-phenylalaninamide]
IC50: 39 nM

COC(=O)N[C@H](C(=O)Nc1ccccc1CC[C@@H]1CN[C@H](C)[C@@H](CSc2nc3ccc(OC(F)F)cc3[nH]2)O1)C(c1ccccc1)c1ccccc1 [Example 17, methyl N-[(1S)-1-benzhydryl-2-[[2-[2-[(2R,5R,6S)-6-[[5-(difluoromethoxy)-1H-benzimidazol-2-yl]sulfanylmethyl]-5-methyl-morpholin-2-yl]ethyl]phenyl]amino]-2-oxo-ethyl]carbamate]
IC50: 25.1 nM

COC(=O)N[C@H](C(=O)Nc1ccccc1CC[C@@H]1CN[C@H](C)[C@@H](CSc2nc(N)c3cn[nH]c3n2)O1)C(c1ccccc1)c1ccccc1 [Example 25, methyl N-[(1S)-1-[[2-[2-[(2R,5R,6S)-6-[(4-amino-1H-pyrazolo[3,4-d]pyrimidin-6-yl)sulfanylmethyl]-5-methyl-morpholin-2-yl]ethyl]phenyl]carbamoyl]-2,2-diphenyl-ethyl]carbamate]
IC50: 100 nM

CC[C@@H](NC(=O)OC[C@H]1NC[C@@H](CCc2c(F)cccc2NC(=O)[C@@H](N)C(c2ccc(F)cc2)c2ccc(F)cc2)O[C@H]1C)c1ccc(F)cc1 [Example 38, 4-fluoro-N-[3-fluoro-2-(2-{(2R,5R,6S)-5-[({[(1R)-1-(4-fluorophenyl)propyl]carbamoyl}oxy)methyl]-6-methylmorpholin-2-yl}ethyl)phenyl]-β-(4-fluorophenyl)-L-phenylalaninamide]
IC50: 4.4 nM

COC(=O)N[C@H](C(=O)Nc1ccccc1CC[C@@H]1CN[C@H](C)[C@@H](CSc2cnc3ccccc3n2)O1)C(c1ccccc1)c1ccccc1 [Example 9, methyl N-[(1S)-1-benzhydryl-2-[[2-[2-[(2R,5R,6S)-5-methyl-6-(quinoxalin-2-ylsulfanylmethyl)morpholin-2-yl]ethyl]phenyl]amino]-2-oxo-ethyl]carbamate]
IC50: 8.48 nM

COC(=O)N[C@H](C(=O)Nc1ccccc1CC[C@@H]1CN[C@H](C)[C@@H](CS(=O)(=O)c2ccc(Cl)cc2)O1)C(c1ccccc1)c1ccccc1 [Example 40, N-(2-{2-[(2R,5R,6S)-6-{[(4-chlorophenyl)sulfonyl]methyl}-5-methylmorpholin-2-yl]ethyl}phenyl)-Nα-(methoxycarbonyl)-β-phenyl-L-phenylalaninamide]
IC50: 750 nM

COC(=O)N[C@H](C(=O)Nc1ccccc1CC[C@@H]1CN[C@H](C)[C@@H](CSc2ncnc3c2cnn3C)O1)C(c1ccccc1)c1ccccc1 [Example 11, methyl N-[(1S)-1-benzhydryl-2-[[2-[2-[(2R,5R,6S)-5-methyl-6-[(1-methylpyrazolo[3,4-d]pyrimidin-4-yl)sulfanylmethyl]morpholin-2-yl]ethyl]phenyl]amino]-2-oxo-ethyl]carbamate]
IC50: 11.7 nM
